From patent US20120101163A1, “COMPOSITION FOR INHIBITING CANCER METASTASIS” (TAIPEI MEDICAL UNIVERSITY, priority 2010, published 2012)

What was measured:
[1] = tested on: matrix metalloproteinase-9; assay: Gelatin gel zymography of PMA-induced HT 1080 cells, MMP-9 activity; assay type: cell-based, Human; conditions: HT 1080 cells, 0.4, 0.8, 1.2 and 1.6 mM, 24 hours
Experimental: (§1) 4. Gelatin Gel Zymography (Shim et al., 2003; Park et al., 2005; Hwang et al., 2006)
(§2) HT 1080 cells with appropriate cell numbers were cultured in 60 mm culturing plates for 12 hours, respectively. After the cells were attached onto the bottom of the plate and formed a monolayer, the medium in the plate was removed. Fresh serum free mediums with different concentrations of a test sample were added to the plates, respectively, and 100 nM PMA was added to each plate to induce the cells to express great quantities of matrix metalloproteinase-2 and matrix metalloproteinase-9, and the plates were placed in a temperature of 37° C. for 24 hours. After centrifugation, each cultured supernatant were saved and mixed with SDS-sample buffer under the same protein contents which were then injected into a 10% SDS-polyacrylamide gel (containing 1 mg/ml gelatin) and then electrophoresed. After the electrophoresis was completed, the gel was taken out and washed with 20 mM Tris-HCl containing 25% isopropanol three times; 10 minutes per time. Then the gel was equilibrated with 20 mM Tris-HCl for 30 minutes, and finally an incubate buffer (5 mM CaCl2 and 1 mM ZnCl2) was added to the gel and reacted with the gel overnight. Then the gel was stained with coomassie blue, and positions having matrix metalloproteinase activity of the gel presented a white color.

[2] = tested on: matrix metalloproteinase-2; assay: Gelatin gel zymography of PMA-induced HT 1080 cells, MMP-2 activity; assay type: cell-based, Human; conditions: HT 1080 cells, 0.4, 0.8, 1.2 and 1.6 mM, 24 hours
Experimental: as §1, §2

[3] = tested on: human umbilical vein endothelial cells; assay: Tube formation assay (angiogenesis); assay type: cell-based
Experimental: 13. Tube Formation Assay (Malinda et al., 1999)
1μ-Slide Angiogenesis ibiTreat chambers were coated with 10 μl Matrigel™ Mixtrix and placed in an incubator at 37° C. for 1 hour. 40 μl of a 3×10^5 cells/ml cell suspension was added to each chamber and left still for 20 minutes to let the cells attach to the chamber. After that, the medium in each chamber was removed. Fresh mediums with different concentrations of a test drug were added to the chambers, respectively and placed in an incubator at 37° C. After 18 hours, the angiogenesis appearance in each chamber was observed and photographed for recording.

[4] = tested on: human umbilical vein endothelial cells; assay: Cell viability assay of human umbilical vein endothelial cells; assay type: cell-based; conditions: 24 hours
Experimental: A medium in a culturing plate containing cells grown covering the whole bottom of the culturing plate, was removed. The cells were washed with 10 ml of PBS, and then suspended and mixed well with 10 ml of medium (a part of the cells need to be suspended with Trypsin-EDTA buffer). The numbers of the cells were calculated by a hemocytometer, and the cells were diluted to an appropriate cell concentration and added into the wells of a 24 well culturing plate by an amount of 500 μl/well. The 24 well culturing plates were placed in an incubator at 37° C. in a humidified atmosphere containing 5% CO2. After the cells were attached onto the bottom of the wells, the medium in each well was removed, and fresh mediums with different concentrations of a test drug were added into wells, respectively (if the cells were suspension cells, the fresh medium may be added into the wells, directly). Then, the 24 well culturing plates were placed in an incubator at 37° C. in a humidified atmosphere containing 5% CO2 for 24 hours. After that, an upper medium in each well was removed. The cells were washed with a PBS buffer twice, and then an MTT solution which was prepared with a medium was added to each well. After the 24 well culturing plates were placed in an incubator at 37° C. for reacting 4-6 hours, an upper medium in each well was removed, and 100 μl of DMSO was added to each well to solubilize the formazan precipitates. After that, an ELISA reader was used to determine the absorbance for each well at 600 nm.
After human umbilical vein endothelial cells were treated with the different concentrations of L-Aspartic acid β-hydroxamate (CH) and different concentrations of L-Glutamic acid γ-hydroxamate (DH) for 24 hours, respectively, the cell viability assays were performed to the treated human umbilical vein endothelial cells and the angiogenesis conditions of the human umbilical vein endothelial cells were recorded. The results of the cell viability assays are shown as FIGS. 13 (A) and 14 (A). Photographs for the human umbilical vein endothelial cells treated with L-Aspartic acid β-hydroxamate (CH) and human umbilical vein endothelial cells treated with L-Glutamic acid γ-hydroxamate (DH) are shown as FIGS. 13 (B) and 14 (B), respectively.

SMILES | matrix metalloproteinase-9 inhibiting activity [1] | matrix metalloproteinase-2 inhibiting activity [2] | angiogenesis inhibition at 0.25 mM ([3]; 0.25 mM) | inhibition rate to angiogenesis ([3]; about 0.1-1.5 mM, stated as embodiment) | angiogenesis compared with the control group ([3]; increasing concentrations) | cytotoxicity to human umbilical vein endothelial cells ([4]; 0.25 mM) | viability of human umbilical vein endothelial cells ([4]; 0.75 mM)
N[C@@H](CCC(=O)O)C(=O)O [D, L-Glutamic acid, reference compound] | no inhibiting effect | no inhibiting effect |  |  |  |  | 
NC(CC(=O)NO)C(=O)O [CH, L-Aspartic acid β-hydroxamate] |  |  | already had an effect of inhibiting angiogenesis | 10-90% | significantly inhibited | no cytotoxicity | slight decreases
